Publication PMC9421656, “Beyond Retigabine: Design, Synthesis, and Pharmacological Characterization of a Potent and Chemically Stable Neuronal Kv7 Channel Activator with Anticonvulsant Activity” (Journal of Medicinal Chemistry, 2022)
Like-named read-outs stand apart in the source and are kept apart here.

Columns and labels:
Kv7.4 channels = target: T1, Kv7.4 channels (Homo sapiens, UniProt P56696); test: Whole-cell patch-clamp electrophysiology in CHO cells expressing Kv7.4; format: cell-based; conditions: 0.1 μM, Kv7.4 currents
T1 construct: expressed in transfected cells; host or cells: CHO cells
Protocol: In order to evaluate the effects of compound 60 on other Kv7 channels, its ability to activate Kv7.4 channels expressed in CHO cells was also investigated. […]. During the recording, constant perfusion of extracellular solution was maintained. The extracellular solution contained (in mM): 138 NaCl, 2 CaCl2, 5.4 KCl, 1 MgCl2, 10 glucose, and 10 HEPES, at pH 7.4, with NaOH. The pipette (intracellular) solution contained (in mM): 140 KCl, 2 MgCl2, 10 EGTA, 10 HEPES, 5 Mg^2+-ATP, at pH 7.3–7.4, with KOH. Current was recorded using an Axopatch-200A amplifier, filtered at 5 kHz, and digitized using a DigiData 1440A (Molecular Devices). The pCLAMP software (version 10.2) was used for data acquisition and analysis (Molecular Devices). To evaluate the activity of each compound on Kv7.2 + Kv7.3 currents, the cells were clamped at −80 mV and conductance–voltage curves (G/V curves; activation curves) were generated by normalizing to the maximal value of the instantaneous isopotential currents at 0 mV and expressing the normalized values as a function of the preceding voltages. Data were fit to a Boltzmann distribution of the following form: y = max/[1 + exp (V1/2 – V)/k], where V is the test potential, V1/2 is the half-activation potential, and k is the slope factor.

[1] = Chemical stability in aqueous buffer without light exposure; format: physicochemical; conditions: 3 h, avoiding UV light exposure
Protocol: […]. The reduced electron availability at N2 and N4 due to the presence of fluorine atom in position 3 of compound 60 strongly reduces also the first photo-oxidative step, thus conferring remarkable photostability.
Photostability experiments were performed by dissolving compounds in DMSO and then diluting in buffered aqueous solutions at pH 7.4 to a final concentration of 10 μM. 1 cm quartz cells, filled with the abovementioned solutions, were irradiated by a UV lamp (UV Consulting TQ 150 equipped with Duran 50 sleeve and 150 W power supply unit, Peschl, Germany) at a fixed distance of 20 cm from the UV source. Control samples were maintained at 37 °C, wrapped with aluminum foil to avoid light exposure, and used to assess chemical stability of the compounds. At predetermined intervals, aliquots were withdrawn and analyzed by UHPLC in order to assess the concentration decrease of the starting materials and the presence of the dimers usually formed by retigabine.
Photostability and chemical stability experiments were carried out on a Kinetex^TM C18 150 × 2.1 mm × 2.6 μm (100 Å) column (Phenomenex, Bologna, Italy). […] Data acquisition was set in the range 190–800 nm, and chromatograms were monitored at 224 nm to assess the decrease in concentration of the starting material, while a wavelength of 550 nm was used to eventually detect dimerization.

Kv7.2/Kv7.3 channels = Kv7.2/Kv7.3 channels (Homo sapiens, UniProt O43525+O43526); test: Whole-cell patch-clamp electrophysiology in CHO cells expressing Kv7.2/Kv7.3; format: cell-based; set-up: expressed in transfected cells; host or cells: CHO cells, transient transfection (pcDNA3.1, Lipofectamine 2000); conditions: for EC50: dose-response 0.01–30 μM
Protocol: Channel subunits were expressed in Chinese hamster ovary (CHO) cells by transient transfection, using plasmids containing cDNAs encoding human Kv7.2 and/or Kv7.3, all cloned in the pcDNA3.1 vector. According to the experimental protocol, these plasmids were expressed individually or in combination, together with a plasmid-expressing enhanced green fluorescent protein (Clontech, Palo Alto, CA) used as a transfection marker. Total cDNA in the transfection mixture was kept at 4 μg. CHO cells were grown in 100 mm plastic Petri dishes in Dulbecco’s modified Eagle’s medium containing 10% fetal bovine serum, nonessential amino acids (0.1 mM), penicillin (50 U/mL), and streptomycin ([…]) in a humidified atmosphere at 37 °C with 5% CO2.
Currents from CHO cells were recorded at room temperature (20–22 °C) using the whole-cell configuration of the patch-clamp technique, with glass micropipettes of 3–5 MΩ resistance. During the recording, constant perfusion of extracellular solution was maintained. […] The pipette (intracellular) solution contained (in mM): 140 KCl, 2 MgCl2, 10 EGTA, 10 HEPES, 5 Mg^2+-ATP, at pH 7.3–7.4, with KOH. […] To evaluate the activity of each compound on Kv7.2 + Kv7.3 currents, the cells were clamped at −80 mV and conductance–voltage curves (G/V curves; activation curves) were generated by normalizing to the maximal value of the instantaneous isopotential currents at 0 mV and expressing the normalized values as a function of the preceding voltages. Data were fit to a Boltzmann distribution of the following form: y = max/[1 + exp (V1/2 – V)/k], where V is the test potential, V1/2 is the half-activation potential, and k is the slope factor.
Indicated EC50 values are the mean of at least three independent experiments ± standard error of the mean (SEM).
Statistically significant differences in electrophysiological data were evaluated with the Student t test or with ANOVA followed by the Student–Newman–Keuls test when multiple groups were compared, with the threshold set at p < 0.05. […] Values are expressed as the […] mean ± standard error of the mean (SEM) of at least three cells recorded in at least three independent transfections.

[2] = Plasma concentration-time course and half-life in rats; conditions: Sprague-Dawley, rat, in vivo, ip, 3 mg/kg
Protocol: The drug half-lives were calculated using GraphPad Prism 8.0.2 (GraphPad Software, LaJolla, CA).
Returning to 40% B in 0.10 min. The flow rate was set at 0.5 mL/min. The column oven was set at 45 °C, and 5 μL of extract was injected. All additives and mobile phases were LCMS-grade and purchased from Merck (Milan, Italy).
The ESI was operated in positive mode. […] Interface temperature, desolvation line temperature, and heat block temperature were set, respectively, to 250, 250, and 350 °C. Nebulizing, drying (N2), and heating gas (air) were set, respectively, to 3, 10, and 10 L/min.

Compound	Idrug/Icontrol (Kv7.4 channels)	ΔV1/2 (Kv7.4 channels) [mV]	Chemical stability [1]	Potency relative to RL-81 (Kv7.2/Kv7.3 channels)	Leftward shift in V1/2 (ΔV1/2) (Kv7.2/Kv7.3 channels; 1 μM) [mV]	Idrug/Icontrol (maximal current density) (Kv7.2/Kv7.3 channels; calculated at +20 mV)	EC50 (Kv7.2/Kv7.3 channels; current at +20 mV, read-out: Maximal currents EC50) [µM]	EC50 (Kv7.2/Kv7.3 channels; read-out: ΔV1/2 EC50) [µM]	Potency over retigabine as Kv7.2/Kv7.3 activator (fold/times) (Kv7.2/Kv7.3 channels; from ΔV1/2 EC50)	half-life [2] [h]
CC(C)(C)CC(=O)Nc1ccc(NCc2ccc(C(F)(F)F)cc2)c(F)c1N [compound 60, N-(2-Amino-3-fluoro-4-((4-(trifluoromethyl)benzyl)amino)phenyl)-3,3-dimethylbutanamide]	2.5 ± 0.3	−29.2 ± 4.4	showed chemical stability	about twice more potent than RL-81	~50	2.1 ± 0.3	0.06 ± 0.01	0.15 ± 0.03	16	
CCOC(=O)Nc1ccc(NCc2ccc(F)cc2)cc1N [RET, retigabine]										2.4
